According to patent publication US20240261272A1, “LPA1 ANTAGONISTS FOR TREATING INTERSTITIAL LUNG DISEASE” (Bristol-Myers Squibb Company, priority 2022, published 2024):

Experiments:
[1] = Phase 1 Part C MAD study in healthy Japanese participants: blood pressure; type: in vivo, human; conditions: for Maximum of Mean (±SD) Reduction in DBP from Baseline (Baseline): MAD Japanese Part C
Procedure: The study was performed in 3 parts in 112 healthy male and female participants, including 24 Japanese participants. Female participants were to be not of childbearing potential. The present study was designed to evaluate the safety and tolerability, PK, and exploratory PD of an oral suspension of Compound A. Parts A and B (Cohort B1 only) enrolled healthy participants and was conducted at a site in The Netherlands and Part B (Cohort B2 to B5) enrolled healthy non-Japanese participants and was conducted at a site in the United Kingdom (UK). Part C enrolled healthy Japanese participants and was conducted at the same site in the UK.
Part C was a MAD study in 3 sequential dose escalation cohorts (30 mg BID, 60 mg BID, and 90 mg BID) of 8 healthy Japanese participants (6 active+2 placebo) each. Eligible participants in Cohorts C1 to C3 received study drug (Compound A or placebo) administered orally for 14 days.
Physical examinations, vital sign measurements (including orthostasis testing in Cohort A6, Cohort B3 to B5, and C1 to C3 at selected time points), 12-lead electrocardiogram (ECG), and clinical laboratory evaluations were performed at selected times throughout the study. In addition, Holter monitoring was performed for the first 24 hours post dose on Day 1 in Part A (not in FE/pH cohort), and also for the first 24 hours post dose on Day 1 and Day 14 in Parts B and C. Participants were closely monitored for adverse events (AEs). Blood samples were collected for up to 14 days (follow-up visit) after (last) study drug administration for PK analysis. In addition, blood and urine were collected for exploratory biomarker assessments and for biobanking of samples for potential analyses. Urine was collected for potential PK analysis for up to 96 hours after a single dose of Compound A or placebo was administered in the SAD part, and for up to 24 hours after the first (morning) dose of study drug on Day 1 and for up to 24 hours after the last (morning) dose of study drug on Day 14 in the MAD parts.

[2] = test system: participants with IPF; experiment: Phase 2 study, IPF cohort: efficacy (rate of change in ppFVC, FVC); type: in vivo, human; conditions: for relative treatment benefit compared to PBO (ppFVC) / relative reduction in rate of decline in ppFVC compared to PBO: 60 mg; for relative reduction in rate of decline in ppFVC compared to PBO: overall
Procedure: A total of 278 participants with IPF were randomized and 276 participants were treated as of the final analyses data cut-off (4 Aug. 2022). Male and female participants ≥40 years of age with IPF and percent predicted forced vital capacity (ppFVC)≥40% and percent predicted DLCO (ppDLCO)≥25%; diagnosed within 7 years of screening; having a centrally-read chest HRCT obtained at screening that was consistent with UIP or probable UIP, or having a lung biopsy consistent with UIP, were eligible to enter the study. The mean baseline ppFVC for all subjects was 76.5%. In the primary IPF cohort, participants were randomized (1:1:1) to receive 30 mg or 60 mg Compound A or placebo (PBO) twice daily for 26 weeks. Participants were stratified by standard of care (SoC) IPF therapy (pirfenidone versus nintedanib versus none) and region (Japan versus Rest of World) at randomization.
The primary objective of the study was to determine the rate of change in ppFVC from baseline to Week 26. The primary objective was evaluated with a two estimand framework to handle the intercurrent event of dose reduction to 10 mg BID or matching PBO when pre-specified low BP criteria is met. The primary estimand is adopted to estimate treatment effect when dose reduction is implemented. The supplementary estimand is adopted to estimate the effect of treatment without dose reduction.
Analysis Strategy: The primary estimand was to evaluate the efficacy of Compound A at 30 mg or 60 mg twice daily, compared to PBO in IPF participants who met the enrollment criteria, with or without use of SoC. The rate of decline in ppFVC (%) from baseline to Week 26 was compared using the difference between each dose and PBO as a population level summary regardless of dose reduction or treatment discontinuation for any reason (treatment policy strategy).
Analysis Strategy: The supplementary estimand for the primary objective is to evaluate the efficacy of Compound A at 30 mg or 60 mg twice daily without dose reduction, compared to the PBO in IPF subjects who met the enrollment criteria, with or without use of SoC. The rate of decline in ppFVC (%) from baseline to Week 26 has been compared using the difference between each dose and PBO as a population level summary regardless of treatment discontinuation for any reason (treatment policy strategy). In the event of dose reduction, data collected after dose reduction will not be considered relevant to the treatment effect of interest and therefore, will be treated as missing (while-on-treatment strategy).

CCCN(C)C(=O)OCc1c(-c2ccc(O[C@H]3CCC[C@H](C(=O)O)C3)c(C)n2)nnn1C [Compound A, (1S,3S)-3-((2-methyl-6-(1-methyl-5-(((methyl(propyl)carbamoyl)-oxy)methyl)-1H-1,2,3-triazol-4-yl)pyridin-3-yl)oxy)cyclohexane-1-carboxylic acid]
BP reduction dose dependence (in words) ([1]; Japanese MAD cohorts): no clear Compound A dose-dependent BP reduction trend
Maximum of Mean (±SD) Reduction in DBP from Baseline (Baseline) ([1]; 30 mg BID (C1)): 8.8 ± 5.12 mmHg
Maximum of Mean (±SD) Reduction in DBP from Baseline (Baseline) ([1]; 60 mg BID (C2)): 8.2 ± 10.40 mmHg
Maximum of Mean (±SD) Reduction in DBP from Baseline (Baseline) ([1]; 90 mg BID (C2)): 8.0 ± 8.22 mmHg
efficacy compared to PBO (in words) ([2]; 30 mg dose group, Week 26): did not demonstrate efficacy
treatment response versus PBO (in words) ([2]; 60 mg dose group, Week 26, ppFVC and FVC (mL)): favorable treatment responses
relative treatment benefit compared to PBO (ppFVC) ([2]; not on background SoC, primary estimand): 113%
relative treatment benefit compared to PBO (ppFVC) ([2]; not on background SoC, supplementary estimand): 123%
relative treatment benefit compared to PBO (ppFVC) ([2]; on background SoC, primary estimand): 39%
relative treatment benefit compared to PBO (ppFVC) ([2]; on background SoC, supplementary estimand): 44%
relative reduction in rate of decline in ppFVC compared to PBO ([2]; primary estimand): 54%
relative reduction in rate of decline in ppFVC compared to PBO ([2]; supplementary estimand): 62%
